Assay results taken from patent US20210317071A1, “PH-RESPONSIVE LIPIDS” (University of KwaZulu-Natal, priority 2016, published 2021).
Converted amounts (≈) assume the structure as drawn. Like-named read-outs stand apart in the source and are kept apart here.

Assays:
shaved rat skin = format: in vitro ADME, Wistar rats
Description: All the experiments performed using animals were approved by Animal Research Ethics committee of the University of KwaZulu-Natal. In vivo study, the protocol was approved by Animal Research Ethics committee of the University of KwaZulu-Natal. The protocol approval numbers for in vivo skin infection model and transdermal permeation studies were AREC/104/015PD and AREC/054/14/Animal respectively. BALB/c mice and Wistar rats were used for in vivo skin infection model and transdermal permeation study respectively. Animals used in the study were procured from Biomedical Resource Unit of University of KwaZulu-Natal, Westville, Durban, South Africa.
All the intermediate, ester derivatives (MSAPE, MOAPE, MLAPE, MLLAPE, DSAPE, DOAPE, DLAPE, DLLAPE, TSAPE, TOAPE, TLAPE and TLLAPE) were evaluated as potential CPEs for transdermal drug delivery using tenofovir (TNF) as a model drug. The experiments were performed on shaved rat skin using Franz diffusion cells. TNF gels were prepared using hydroxypropyl methyl cellulose, milli-Q water and 1% w/w of compounds of formula 1. The permeability of TNF in the absence of enhancers was performed as a control. […] TNF was able to permeate the skin without any permeation enhancer with a steady state flux value 040.91±04.93 μg cm^−2 h^−1 (Table 6).

[1] = In-vitro VCM release from liposomes as a function of pH; format: physicochemical
Protocol: In-vitro drug release of VCM from the pH-responsive liposomes of the invention is illustrated in FIG. 6. At all-time intervals, VCM release at acidic pH (6.5) was higher than at physiological pH of 7.4. […] For further confirmation, the mean dissolution time (MDT 90%) for 90% of drug release was calculated from in-vitro release data. […] The MDT value is inversely proportional to the release rate, i.e. lower the MDT higher the release rate and vice versa. […] The higher drug release rate at the acidic environment from liposomes can be attributed to the alteration in the lipid bilayer orientation and permeability caused by conformational changes at the head group and hydrophobic tails of the PH-responsive lipid at low pH.

[2] = test system: Methicillin-resistant Staphylococcus aureus (MRSA); assay: In-vitro antibacterial activity, MIC by broth dilution; format: cell-based
Protocol: (§1) The minimum inhibitory concentration (MIC) values for VCM loaded liposomes were determined against Staphylococcus aureus (SA) and Methicillin-resistant Staphylococcus aureus (MRSA) using broth dilution method (Materials Science and Engineering: C, Volume 61, 2016, Pages 616-630). The stock bacterial cultures were grown in Mueller-Hinton Broth (MHB) 24 h before the test at 37° C.
(§2) Bacterial suspensions were prepared equal to 1.5×10^8 CFU ml^−1 as half mcFarland. Serial dilutions of VCM loaded liposomal formulations were prepared in MHB broth then added to the bacterial culture, mixed properly and incubated at 37° C. for 24 hours. […] The study continued for four days to determine the sustained release activity of encapsulated VCM. Experiments were performed in triplicate and drug-free liposomes, bare VCM solution and VCM loaded liposomes without Ph-responsive lipid were used as controls.

[3] = test system: Staphylococcus aureus (SA); assay: as above; format: cell-based; conditions: S. aureus
Protocol: as §1, §2

[4] = both pH values, study over four days
[5] = pH 6.5, DAY - I (24 h), listed as bare VCM
[6] = pH 7.4, DAY - I (24 h), listed as bare VCM

CCCCCCCCCCCCCCCCCC(=O)OCC(COC(=O)CCCCCCCCCCCCCCCCC)(COC(=O)CCCCCCCCCCCCCCCCC)NCCC(=O)OC(C)(C)C [TSAPE, 2-((3-(tert-butoxy)-3-oxopropyl)amino)-2-((stearoyloxy)methyl) propane-1,3-diyl distearate]
Cumulative amount of TNF permeated (shaved rat skin; Wistar, rat, 6 h, 1 % w/w): 531.70 ± 23.87 μg cm^−2
ER (enhancement ratio) (shaved rat skin; Wistar, rat, 6 h, 1 % w/w): 2.09
Permeability (P × 10^−2) of TNF (shaved rat skin; Wistar, rat, 6 h, 1 % w/w): 0.428 ± 0.02

C[C@H](Cn1cnc2c(N)ncnc21)OCP(=O)(O)O [TNF, tenofovir, reference compound]
Cumulative amount of TNF permeated (shaved rat skin): 253.10±23.84 μg cm^−2

CC/C=C\C/C=C\C/C=C\CCCCCCCC(=O)OCCNCCC(=O)OC(C)(C)C [MLLAPE, 2-((3-(tert-butoxy)-3-oxopropyl)amino)ethyl (9Z,12Z,15Z)-octadeca-9,12,15-trienoate]
Cumulative amount of TNF permeated (shaved rat skin; Wistar, rat, 6 h, 1 % w/w): 945.88 ± 44.93 μg cm^−2
ER (enhancement ratio) (shaved rat skin; Wistar, rat, 6 h, 1 % w/w): 3.70
Permeability (P × 10^−2) of TNF (shaved rat skin; Wistar, rat, 6 h, 1 % w/w): 0.758 ± 0.04

CCCCCCCCCCCCCCCCCC(=O)OCCNCCC(=O)OC(C)(C)C [MSAPE, 2-((3-(tert-butoxy)-3-oxopropyl)amino)ethyl stearate]
Cumulative amount of TNF permeated (shaved rat skin; Wistar, rat, 6 h, 1 % w/w): 407.12 ± 66.51 μg cm^−2
ER (enhancement ratio) (shaved rat skin; Wistar, rat, 6 h, 1 % w/w): 1.55
Permeability (P × 10^−2) of TNF (shaved rat skin; Wistar, rat, 6 h, 1 % w/w): 0.317 ± 0.06

CCCCCCCCCCCCCCCCCC(=O)OCC(COC(=O)CCCCCCCCCCCCCCCCC)NCCC(=O)OC(C)(C)C [DSAPE, 2-((3-(tert-butoxy)-3-oxopropyl)amino)propane-1,3-diyl distearate]
Cumulative amount of TNF permeated (shaved rat skin; Wistar, rat, 6 h, 1 % w/w): 336.1 ± 25.67 μg cm^−2
ER (enhancement ratio) (shaved rat skin; Wistar, rat, 6 h, 1 % w/w): 1.40
Permeability (P × 10^−2) of TNF (shaved rat skin; Wistar, rat, 6 h, 1 % w/w): 0.286 ± 0.02

CCCCC/C=C\C/C=C\CCCCCCCC(=O)OCCNCCC(=O)OC(C)(C)C [MLAPE, 2-((3-(tert-butoxy)-3-oxopropyl)amino)ethyl (9Z,12Z)-octadeca-9,12-dienoate]
Cumulative amount of TNF permeated (shaved rat skin; Wistar, rat, 6 h, 1 % w/w): 574.97 ± 74.09 μg cm^−2
ER (enhancement ratio) (shaved rat skin; Wistar, rat, 6 h, 1 % w/w): 2.25
Permeability (P × 10^−2) of TNF (shaved rat skin; Wistar, rat, 6 h, 1 % w/w): 0.460 ± 0.06

CC/C=C\C/C=C\C/C=C\CCCCCCCC(=O)OCC(COC(=O)CCCCCCC/C=C\C/C=C\C/C=C\CC)NCCC(=O)OC(C)(C)C [DLLAPE, 2-((3-(tert-butoxy)-3-oxopropyl)amino)propane-1,3-diyl (9Z,9′Z,12Z,12′Z,15Z,15′Z)-bis(octadeca-9,12,15-trienoate)]
Cumulative amount of TNF permeated (shaved rat skin; Wistar, rat, 6 h, 1 % w/w): 400.37 ± 18.92 μg cm^−2
ER (enhancement ratio) (shaved rat skin; Wistar, rat, 6 h, 1 % w/w): 1.65
Permeability (P × 10^−2) of TNF (shaved rat skin; Wistar, rat, 6 h, 1 % w/w): 0.337 ± 0.01

CCCCC/C=C\C/C=C\CCCCCCCC(=O)OCC(COC(=O)CCCCCCC/C=C\C/C=C\CCCCC)NCCC(=O)OC(C)(C)C [DLAPE, 2-((3-(tert-butoxy)-3-oxopropyl)amino)propane-1,3-diyl (9Z,9′Z,12Z,12′Z)-bis(octadeca-9,12-dienoate)]
Cumulative amount of TNF permeated (shaved rat skin; Wistar, rat, 6 h, 1 % w/w): 1074.62 ± 61.12 μg cm^−2
ER (enhancement ratio) (shaved rat skin; Wistar, rat, 6 h, 1 % w/w): 3.95
Permeability (P × 10^−2) of TNF (shaved rat skin; Wistar, rat, 6 h, 1 % w/w): 0.809 ± 0.05

CCCCCCCC/C=C/CCCCCCCC(=O)OCC(COC(=O)CCCCCCC/C=C/CCCCCCCC)(COC(=O)CCCCCCC/C=C/CCCCCCCC)NCCC(=O)OC(C)(C)C [TOAPE, 2-((3-(tert-butoxy)-3-oxopropyl)amino)-2-((((Z)-octadec-9-enoyl)oxy)methyl)propane-1,3-diyl(9Z,9′Z)-bis(octadec-9-enoate)]
Cumulative amount of TNF permeated (shaved rat skin; Wistar, rat, 6 h, 1 % w/w): 342.3 ± 26.94 μg cm^−2
ER (enhancement ratio) (shaved rat skin; Wistar, rat, 6 h, 1 % w/w): 1.50
Permeability (P × 10^−2) of TNF (shaved rat skin; Wistar, rat, 6 h, 1 % w/w): 0.306 ± 0.02

CN[C@H](CC(C)C)C(=O)N[C@H]1C(=O)N[C@@H](CC(N)=O)C(=O)N[C@H]2C(=O)N[C@H]3C(=O)N[C@H](C(=O)N[C@H](C(=O)O)c4cc(O)cc(O)c4-c4cc3ccc4O)[C@H](O)c3ccc(c(Cl)c3)Oc3cc2cc(c3O[C@@H]2O[C@H](CO)[C@@H](O)[C@H](O)[C@H]2O[C@H]2C[C@](C)(N)[C@H](O)[C@H](C)O2)Oc2ccc(cc2Cl)[C@H]1O [Bare VCM, Vancomycin]
MDT90% Mean dissolution time calculated for 90% of VCM release ([1]; pH 5.5): 6.064 h
MDT90% Mean dissolution time calculated for 90% of VCM release ([1]; pH 6.5): 4.173 h
MDT90% Mean dissolution time calculated for 90% of VCM release ([1]; pH 7.4): 2.690 h
time up to which antibacterial activity was exhibited [2, 4]: ≤ 24 h
MIC ([2]; pH 6.5, DAY - I (24 h)): 15.62 mg/L (≈ 10.8 µM)
MIC [2, 5]: 0.98 mg/L (≈ 0.676 µM)
MIC ([2]; pH 7.4, DAY - I (24 h)): 7.81 mg/L (≈ 5.39 µM)
MIC [2, 6]: 0.98 mg/L (≈ 0.676 µM)
time up to which antibacterial activity was exhibited [3, 4]: ≤ 24 h
MIC ([3]; pH 6.5, DAY - I (24 h)): 7.81 mg/L (≈ 5.39 µM)
MIC [3, 5]: 1.95 mg/L (≈ 1.35 µM)
MIC ([3]; pH 7.4, DAY - I (24 h)): 3.91 mg/L (≈ 2.7 µM)
MIC [3, 6]: 8.79 mg/L (≈ 6.07 µM)

CCCCCCCC/C=C\CCCCCCCC(=O)OCC(COC(=O)CCCCCCC/C=C\CCCCCCCC)NCCC(=O)OC(C)(C)C [DOAPE, 2-((3-(tert-butoxy)-3-oxopropyl)amino)propane-1,3-diyl dioleate]
Cumulative amount of TNF permeated (shaved rat skin; Wistar, rat, 6 h, 1 % w/w): 424.95 ± 59.84 μg cm^−2
ER (enhancement ratio) (shaved rat skin; Wistar, rat, 6 h, 1 % w/w): 1.71
Permeability (P × 10^−2) of TNF (shaved rat skin; Wistar, rat, 6 h, 1 % w/w): 0.350 ± 0.05

CCCCCCCC/C=C\CCCCCCCC(=O)OCCNCCC(=O)OC(C)(C)C [MOAPE, 2-((3-(tert-butoxy)-3-oxopropyl)amino)ethyl oleate]
Cumulative amount of TNF permeated (shaved rat skin; Wistar, rat, 6 h, 1 % w/w): 1594.06 ± 198.92 μg cm^−2
ER (enhancement ratio) (shaved rat skin; Wistar, rat, 6 h, 1 % w/w): 5.58
Permeability (P × 10^−2) of TNF (shaved rat skin; Wistar, rat, 6 h, 1 % w/w): 1.142 ± 0.16
